Results as given in patent US12116343B2, “Inhibitors of APOL1 and methods of using same” (Vertex Pharmaceuticals Incorporated, priority 2020, dated 2024).
pIC50: −log10 of the molar value. Where two headings read alike, the source gives them in different places.

Target: T1, G1 APOL1 (Homo sapiens, UniProt O14791, I384M/S342G)
T1 construct: expressed in transfected cells
T1 sequence (O14791 28-398 S342G/I384M): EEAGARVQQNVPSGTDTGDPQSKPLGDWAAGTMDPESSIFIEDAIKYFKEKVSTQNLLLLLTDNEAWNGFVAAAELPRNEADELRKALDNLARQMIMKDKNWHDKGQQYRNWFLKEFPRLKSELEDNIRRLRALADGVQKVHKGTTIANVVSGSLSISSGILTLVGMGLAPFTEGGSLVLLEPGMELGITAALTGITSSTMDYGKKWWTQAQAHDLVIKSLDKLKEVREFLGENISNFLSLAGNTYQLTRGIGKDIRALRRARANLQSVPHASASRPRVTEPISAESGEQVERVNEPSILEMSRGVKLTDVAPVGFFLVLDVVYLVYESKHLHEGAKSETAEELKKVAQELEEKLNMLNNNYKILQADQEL
Assay: Acute APOL1 Thallium Assay with inducible stable clones of HEK 293 cells
Type: cell-based
Settings: read-out: Thallium Assay (IC50)
From the text: Acute APOL1 Thallium Assay with Inducible Stable Clones of HEK 293 Cells
Apolipoprotein L1 (APOL1) proteins form potassium-permeable cation pores in the plasma membrane. APOL1 risk variants (G1 and G2) induce greater potassium flux than G0 in HEK293 cells. This assay exploits the permeability of thallium (Tl+) through ligand-gated potassium channels. The dye produces a bright fluorescent signal upon binding to Tl+ conducted through potassium channels. The intensity of the Tl+ signal is proportional to the number of potassium channels in the open state. Therefore, it provides a functional indication of the potassium channel activities. During the initial dye-loading step, the Tl+ indicator dye as an acetoxymethyl (AM) ester enters the cells through passive diffusion. Cytoplasm esterases cleave the AM ester and relieve its active thallium-sensitive form. The cells are then stimulated with Tl+. The increase of fluorescence in the assay represents the influx of Tl+ into the cell specifically through the potassium channel (i.e. through APOL1 pores), providing a functional measurement of potassium channel/pore activity. The Thallium assay is conducted with cells expressing G1 APOL1.
APOL1 Cell Line (HEK T-Rex Stable Inducible Cell Line) • HEK T-Rex System • Tetracycline (Tet) inducible mammalian expression system. • Stably express the Tet repressor to regulate transcription. • Expression under the full-length CMV promoter. • APOL1 stable inducible cell line Clone used: G1 DC3.25
Tissue Culture Media • Cell Culture Medium • DMEM+10% FBS+P/S+5 μg/mL blasticidin+1 μg/mL puromycin. • 500 mL DMEM+55 mL FBS+5 mL P/S+280 μL blasticidin S HCl (10 mg/mL)+56 μL puromycin (10 mg/mL). • Cell Assay Medium • DMEM with 2% FBS+pen strep.
Instruments and Equipment • Nuaire cell culture hood, Cat. No. 540-600 • 37° C./5% CO2 incubator link to robotic arm, Liconic: STX110 • Molecular Devices FLIPR^Tetra High throughput cellular screening system, Cat. No. FT0324, Molecular Devices • ThermoFisher MultiDrop 384, Cat. No. 5840300 • Biotek Microfill, Cat. No. ASF1000A-4145 • BioRad TC10 cell counter, Cat. No. 145-0010 Assay Procedures
Cells Scaled Up from Frozen Vials • APOL1 G1 3.25 (HEK293 T-Rex) frozen vials: 5 million cells per vial • Step 1, Day 1: Defrost frozen vial into T-225. • Step 2, Day 5: (when 85% confluent): Split one T-225 at 3×10^6 cells per flask. • Step 3, Day 8: Splits cells to set up for the assay plates as described below.
T-Rex APOL1 HEK cells are split twice per week to keep the confluence state below 85% of the culture flask surface area. Cells can be kept until passage 25. • Cell Culture Medium • DMEM high glucose+10% FBS, +P/S, +5 μg/mL blasticidin, +1 μg/mL puromycin. • 500 mL DMEM, +55 mL FBS, +5 mL P/S, +280 μL blasicidin 10 mg/mL, +56 μL Puromycin 10 mg/mL. • Assay Media • Opti-MEM reduced serum medium from Invitrogen.
Preparation of Cell Assay Plates • Culture medium is removed from the x cm^2 T-flask by aspiration. • The cell monolayer is rinsed with PBS 1× at room temperature. PBS is removed by aspiration. • Cells are trypsinized using Trypsin. • The flasks are incubated at room temperature for 2-3 minutes. • Complete DMEM medium is then added. Cell suspension is then transferred to a 50 mL Falcon polypropylene tube. • Cells are then counted using a Biorad TC10 cell counter and the required amount of cells are centrifuged at 1200 RPM for 5 minutes. Required amount is 1.3×10^6 cells/mL APOL1 T-Rex HEK cells. • The pellet is suspended in the assay medium. • Using the MultiDrop, add 20 μL to each well (corresponds to 26000 cells total per well) of a 384-well black, transparent, flat bottom Poly-D coated plate. • Tetracycline as prepared in the following section is added to the cells before plating to induce APOL1 expression. • Plates are left at room temperature for 20 to 30 minutes before incubation at 37° C. and 5% CO2. […]

[1] = HEK 293 T-Rex cells expressing G1 APOL1

pIC50 (Table 24, Compounds 287 to 465) | pIC50 [1] | Structure (SMILES)
< 6.00 |  | O=C(NCC1CCOC1)C1CC(Cc2c(-c3ccc(F)cc3)[nH]c3c(F)cc(F)cc23)C1 (stereo not shown) [Compound 330]
< 6.00 |  | C[C@H](CO)N(C)C(=O)NC[C@H]1C[C@H](c2c(-c3ccc(F)cc3)[nH]c3c(F)cc(F)cc32)C1 [Compound 404]
< 6.00 |  | CON(C)C(=O)CN[C@H]1C[C@H](c2c(-c3ccc(F)cc3)[nH]c3c(F)cc(F)cc32)C1 [Compound 292]
< 6.00 |  | O=C(N[C@@H](CO)C(F)(F)F)C1CC(Cc2c(-c3ccc(F)cc3)[nH]c3c(F)cc(F)cc23)C1 (stereo partly shown) [Compound 306]
 | > 6.60 | O=C(N[C@@H](CO)C(F)F)[C@H]1C[C@H](c2c(-c3ccc(F)cc3)[nH]c3c(F)cc(F)cc32)C1 [Compound 230]
< 6.00 |  | CC(C)(O)CNC(=O)C1CC(Cc2c(-c3ccc(F)cc3)[nH]c3c(F)cc(F)cc23)C1 (stereo not shown) [Compound 318]
 | > 6.60 | O=C(NC1(CO)CC1)C1(F)CC(c2c(-c3ccc(F)cc3)[nH]c3c(F)cc(F)cc23)C1 (stereo not shown) [Compound 285]
 | < 6.00 | O=C1CCC(NC(=O)[C@H]2C[C@@H](c3c(-c4ccc(F)cc4)[nH]c4c(F)cc(F)cc43)C2)C(=O)N1 (stereo partly shown) [Compound 252]
< 6.00 |  | Cn1ccnc1CNC(=O)C1CC(Cc2c(-c3ccc(F)cc3)[nH]c3c(F)cc(F)cc23)C1 (stereo not shown) [Compound 338]
< 6.00 |  | CC1(O)CC(NC(=O)NC[C@H]2C[C@H](c3c(-c4ccc(F)cc4)[nH]c4c(F)cc(F)cc43)C2)C1 (stereo partly shown) [Compound 401]
< 6.00 |  | Cc1nn(C)cc1CNC(=O)C1CC(Cc2c(-c3ccc(F)cc3)[nH]c3c(F)cc(F)cc23)C1 (stereo not shown) [Compound 335]
< 6.00 |  | O=C(N[C@H]1CCOC1=O)C1CC(Cc2c(-c3ccc(F)cc3)[nH]c3c(F)cc(F)cc23)C1 (stereo partly shown) [Compound 305]
 | < 6.00 | O=C1NCCCC1NC(=O)[C@H]1C[C@@H](c2c(-c3ccc(F)cc3)[nH]c3c(F)cc(F)cc32)C1 (stereo partly shown) [Compound 249]
< 6.00 |  | CC1(NC(=O)C2CC(Cc3c(-c4ccc(F)cc4)[nH]c4c(F)cc(F)cc34)C2)CCNC1=O (stereo not shown) [Compound 308]
< 6.00 |  | CC(C)CC(NCC1CC(c2c(-c3ccc(F)cc3)[nH]c3c(F)cc(F)cc23)C1)C(N)=O (stereo not shown) [Compound 441]
6.00 to 6.60 |  | C[C@H](NCC1CC(c2c(-c3ccc(F)cc3)[nH]c3c(F)cc(F)cc23)C1)C(=O)N(C)C (stereo partly shown) [Compound 434]
 | < 6.00 | O=C(CNC(=O)[C@H]1C[C@H](c2c(-c3ccc(F)cc3)[nH]c3c(F)cc(F)cc32)C1)NC[C@H](O)C(F)(F)F [Compound 234]
6.00 to 6.60 |  | CN(C)C(=O)CNCC1CC(c2c(-c3ccc(F)cc3)[nH]c3c(F)cc(F)cc23)C1 (stereo not shown) [Compound 435]
< 6.00 |  | C[C@@H](CO)NC(=O)NC[C@H]1C[C@H](c2c(-c3ccc(F)cc3)[nH]c3c(F)cc(F)cc32)C1 [Compound 414]
< 6.00 |  | Cc1cc(CNC(=O)O[C@H]2C[C@H](c3c(-c4ccc(F)cc4)[nH]c4c(F)cc(F)cc43)C2)on1 [Compound 385]
< 6.00 |  | O=C(NC1CC(O)C1)O[C@H]1C[C@H](c2c(-c3ccc(F)cc3)[nH]c3c(F)cc(F)cc32)C1 (stereo partly shown) [Compound 383]
< 6.00 |  | O=C(NCC1(O)CCC1)C1CC(Cc2c(-c3ccc(F)cc3)[nH]c3c(F)cc(F)cc23)C1 (stereo not shown) [Compound 322]

pIC50 (Table 24, Compounds 287 to 465) | pIC50 [1] | Structure (SMILES)
< 6.00 |  | O=C(CC1CC(c2c(-c3ccc(F)cc3)[nH]c3c(F)cc(F)cc23)C1)N[C@H](CO)C(F)(F)F (stereo partly shown) [Compound 461]
6.00 to 6.60 |  | CNC(=O)NC[C@H]1C[C@H](c2c(-c3ccc(F)cc3)[nH]c3c(F)cc(F)cc32)C1 [Compound 391, 1-(((1r,3r)-3-(5,7-difluoro-2-(4-fluorophenyl)-1H-indol-3-yl)cyclobutyl)methyl)-3-methylurea]
< 6.00 |  | C[C@H](NCC1CC(c2c(-c3ccc(F)cc3)[nH]c3c(F)cc(F)cc23)C1)C(N)=O (stereo partly shown) [Compound 439]
 | < 6.00 | COCCNC(=O)[C@H]1C[C@@H](c2c(-c3ccc(F)cc3)[nH]c3c(F)cc(F)cc32)C1 [Compound 242]
< 6.00 |  | CC(CO)N(C)C(=O)NC[C@H]1C[C@H](c2c(-c3ccc(F)cc3)[nH]c3c(F)cc(F)cc32)C1 (mixture of isomers) [Compound 412]
 | < 6.00 | C[C@H](O)[C@H](CO)NC(=O)[C@H]1C[C@@H](c2c(-c3ccc(F)cc3)[nH]c3c(F)cc(F)cc32)C1 [Compound 245]
< 6.00 |  | CC(C)(O)CCNC(=O)C1CC(Cc2c(-c3ccc(F)cc3)[nH]c3c(F)cc(F)cc23)C1 (stereo not shown) [Compound 327]
 | < 6.00 | CC(C)CC(NC(=O)[C@H]1C[C@@H](c2c(-c3ccc(F)cc3)[nH]c3c(F)cc(F)cc32)C1)C(N)=O (stereo partly shown) [Compound 255]
 | > 6.60 | C[C@@H](CO)NC(=O)[C@H]1C[C@H](c2c(-c3ccc(F)cc3)[nH]c3c(F)cc(F)cc32)C1 [Compound 27]
< 6.00 |  | CC(C)NC(=O)CNC[C@H]1C[C@H](c2c(-c3ccc(F)cc3)[nH]c3c(F)cc(F)cc32)C1 [Compound 451]
< 6.00 |  | Cn1cnc(CNC(=O)C2CC(Cc3c(-c4ccc(F)cc4)[nH]c4c(F)cc(F)cc34)C2)c1 (stereo not shown) [Compound 314]
< 6.00 |  | COC1CC1NC(=O)O[C@H]1C[C@H](c2c(-c3ccc(F)cc3)[nH]c3c(F)cc(F)cc32)C1 (stereo partly shown) [Compound 376]
< 6.00 |  | CC1CC(NC(=O)NC[C@H]2C[C@H](c3c(-c4ccc(F)cc4)[nH]c4c(F)cc(F)cc43)C2)C(=O)O1 (stereo partly shown) [Compound 395]
< 6.00 |  | O=C(NC[C@H]1C[C@H](c2c(-c3ccc(F)cc3)[nH]c3c(F)cc(F)cc32)C1)N[C@H]1CC[C@H](O)C1 [Compound 419]
< 6.00 |  | CN(CC1CC(c2c(-c3ccc(F)cc3)[nH]c3c(F)cc(F)cc23)C1)C(=O)NCc1cn(C)cn1 (stereo not shown) [Compound 427, 1-((3-(5,7-difluoro-2-(4-fluorophenyl)-1H-indol-3-yl)cyclobutyl)methyl)-1-methyl-3-((1-methyl-1H-imidazol-4-yl)methyl)urea]
 | < 6.00 | O=C(NC1(CO)CC1)[C@H]1C[C@@H](c2c(-c3ccc(F)cc3)[nH]c3c(F)cc(F)cc32)C1 [Compound 253]
< 6.00 |  | C[C@H](O)CNC(=O)N(C)CC1CC(c2c(-c3ccc(F)cc3)[nH]c3c(F)cc(F)cc23)C1 (stereo partly shown) [Compound 430]
 | < 6.00 | O=C(NCC1COC1)[C@H]1C[C@@H](c2c(-c3ccc(F)cc3)[nH]c3c(F)cc(F)cc32)C1 [Compound 248]
 | < 6.00 | C[C@H](CO)NC(=O)CNC(=O)[C@H]1C[C@H](c2c(-c3ccc(F)cc3)[nH]c3c(F)cc(F)cc32)C1 [Compound 232]
 | > 6.60 | Cn1cnc(CNC(=O)C2(F)CC(c3c(-c4ccc(F)cc4)[nH]c4c(F)cc(F)cc34)C2)c1 (stereo not shown) [Compound 286]
 | 6.00 to 6.60 | O=C(NCCO)[C@H]1C[C@@H](c2c(-c3ccc(F)cc3)[nH]c3c(F)cc(F)cc32)C1 [Compound 237]
